# ChEMBL document CHEMBL1201862, “PubChem BioAssay data set” (2004)
# Active and inactive are the calls of the source.
# Experiments:
# [1] = cytotoxicity in HPDE-C7 cells, cell-based, fluorescence, HTS (AID 430); assay type: functional; conditions: Homo sapiens
# [2] = cytotoxicity in KRAS-transformed pancreatic duct cells, primary screen, cell-based, fluorescence, HTS (AID 431); assay type: functional; conditions: Homo sapiens;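 note: cell line used: HPDE-C7K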
# [3] = growth suppression of PTEN-null colon cells, dose response, cell-based, HCT116 PTEN knockout (AID 1047); assay type: functional;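 note: HCT116 colon tumor cells with PTEN knocked out; cells exposed to compound for 60 hours before readout; potency for loss of cell viability measured by luminescence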
# [4] = growth suppression of beta-catenin-knockout colon cells, dose response, cell-based, HCT116, human colon tumor (AID 1045); assay type: functional;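 note: HCT116 colon tumor cells with beta catenin knocked out; cells exposed to compound for 60 hours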
# [5] = molecular target: T1, Short transient receptor potential channel 4 (Mus musculus, UniProt Q9QUQ5); assay: mouse TRPC4 channel activators, dose response, cell-based, HEK293 TRPC4/mu-opioid, Fluo-4 calcium (AID 434937); assay type: functional
# T1 sequence (Q9QUQ5 whole entry): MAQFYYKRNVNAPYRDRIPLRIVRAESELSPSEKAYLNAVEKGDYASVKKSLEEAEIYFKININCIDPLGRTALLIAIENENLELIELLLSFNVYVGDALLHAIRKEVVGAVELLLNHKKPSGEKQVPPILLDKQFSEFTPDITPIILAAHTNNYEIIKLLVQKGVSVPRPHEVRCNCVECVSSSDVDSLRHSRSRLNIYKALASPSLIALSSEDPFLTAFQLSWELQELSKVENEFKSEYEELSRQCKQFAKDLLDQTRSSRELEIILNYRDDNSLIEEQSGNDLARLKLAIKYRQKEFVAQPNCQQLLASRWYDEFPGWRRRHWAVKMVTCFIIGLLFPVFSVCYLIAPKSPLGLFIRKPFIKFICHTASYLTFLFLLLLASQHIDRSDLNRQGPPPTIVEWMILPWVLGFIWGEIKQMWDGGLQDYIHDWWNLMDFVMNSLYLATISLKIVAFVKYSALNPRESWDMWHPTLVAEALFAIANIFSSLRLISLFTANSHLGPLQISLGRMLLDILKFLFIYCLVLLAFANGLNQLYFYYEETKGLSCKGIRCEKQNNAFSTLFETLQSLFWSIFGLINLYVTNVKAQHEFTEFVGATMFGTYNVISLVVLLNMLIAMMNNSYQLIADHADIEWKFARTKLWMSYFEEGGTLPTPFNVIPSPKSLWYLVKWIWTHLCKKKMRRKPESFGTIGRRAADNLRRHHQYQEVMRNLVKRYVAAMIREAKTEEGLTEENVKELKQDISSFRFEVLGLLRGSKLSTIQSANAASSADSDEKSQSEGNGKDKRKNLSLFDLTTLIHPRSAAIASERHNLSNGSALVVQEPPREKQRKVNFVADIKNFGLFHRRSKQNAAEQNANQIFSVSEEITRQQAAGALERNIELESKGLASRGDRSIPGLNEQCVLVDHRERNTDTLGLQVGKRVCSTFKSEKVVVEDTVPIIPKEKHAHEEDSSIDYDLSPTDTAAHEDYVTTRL
# Genome polyprotein = Genome polyprotein (dengue virus type 2, UniProt P29990); assay: Dengue-2 NS5 methyltransferase inhibitors, primary screen, biochemical, confirmation dose response (AID 588689); assay type: functional
# Genome polyprotein, sequence (P29990 2492-3391 limits assumed): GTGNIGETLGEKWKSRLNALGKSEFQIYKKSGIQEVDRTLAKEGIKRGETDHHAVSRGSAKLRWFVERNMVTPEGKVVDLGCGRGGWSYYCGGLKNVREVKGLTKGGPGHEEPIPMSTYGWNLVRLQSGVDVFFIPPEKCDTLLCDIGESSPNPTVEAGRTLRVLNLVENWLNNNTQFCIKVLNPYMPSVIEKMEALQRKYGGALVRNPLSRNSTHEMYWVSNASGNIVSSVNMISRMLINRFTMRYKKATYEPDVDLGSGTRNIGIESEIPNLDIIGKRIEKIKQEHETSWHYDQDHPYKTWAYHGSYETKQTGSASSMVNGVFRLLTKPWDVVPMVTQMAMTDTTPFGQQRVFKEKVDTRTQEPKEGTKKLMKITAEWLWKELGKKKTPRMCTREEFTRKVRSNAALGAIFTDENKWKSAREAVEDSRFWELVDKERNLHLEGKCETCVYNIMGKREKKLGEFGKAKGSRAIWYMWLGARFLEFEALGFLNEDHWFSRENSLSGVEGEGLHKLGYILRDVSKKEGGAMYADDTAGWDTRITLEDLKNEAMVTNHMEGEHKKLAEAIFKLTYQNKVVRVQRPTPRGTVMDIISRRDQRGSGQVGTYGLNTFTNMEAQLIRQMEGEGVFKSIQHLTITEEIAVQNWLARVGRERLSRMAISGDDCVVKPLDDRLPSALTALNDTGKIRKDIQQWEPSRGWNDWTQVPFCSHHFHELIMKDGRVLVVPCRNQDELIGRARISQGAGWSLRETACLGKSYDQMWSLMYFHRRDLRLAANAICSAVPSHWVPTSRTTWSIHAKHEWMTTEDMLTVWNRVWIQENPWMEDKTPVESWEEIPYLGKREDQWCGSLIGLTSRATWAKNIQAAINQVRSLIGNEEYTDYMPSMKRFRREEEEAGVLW
# [6] = inhibitors of firefly luciferase expression or activity, dose response, H4 neuroglioma cells, luminescence (AID 1990); assay type: functional, cell-based
# [7] = Luminescence Cell-Based Dose Response HTS to Identify Inhibitors of 5'UTR Stem-Loop Driven Prion Protein mRNA Translation in H4 Neuroglioblastoma Cells. [Related pubchem assays: 1827 (Project Summary), 1813 (Primary HTS)]; assay type: functional
# [8] = inhibitors of SNCA 5'UTR-driven reporter translation, confirmation, H4 neuroglioma cells, luminescence (AID 1988); assay type: functional, cell-based
# [9] = molecular target: Glucose-6-phosphate 1-dehydrogenase (Homo sapiens, UniProt P11413); assay: human G6PD enzyme inhibitors, dose response, selectivity assay for P. falciparum G6PD inhibitor project, biochemical, fluorescence (AID 504792); assay type: functional
# Glucose-6-phosphate 1-dehydrogenase, sequence (P11413 whole entry): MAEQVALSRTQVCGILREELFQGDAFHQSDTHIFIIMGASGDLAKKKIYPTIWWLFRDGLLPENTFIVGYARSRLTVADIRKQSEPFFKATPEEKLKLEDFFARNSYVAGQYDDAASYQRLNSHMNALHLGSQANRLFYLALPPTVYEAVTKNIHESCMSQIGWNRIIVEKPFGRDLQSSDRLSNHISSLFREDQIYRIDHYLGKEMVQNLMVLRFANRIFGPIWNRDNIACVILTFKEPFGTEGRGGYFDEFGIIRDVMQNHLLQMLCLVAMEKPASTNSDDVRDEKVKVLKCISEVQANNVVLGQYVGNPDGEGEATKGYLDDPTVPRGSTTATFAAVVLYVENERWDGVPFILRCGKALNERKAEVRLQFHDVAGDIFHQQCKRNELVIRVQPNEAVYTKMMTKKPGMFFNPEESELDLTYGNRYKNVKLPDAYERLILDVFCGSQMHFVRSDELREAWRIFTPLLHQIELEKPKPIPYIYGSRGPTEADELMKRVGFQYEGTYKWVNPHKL
# [10] = molecular target: T2, High affinity choline transporter 1 (Homo sapiens, UniProt Q9GZV3); assay: CHT inhibitors, dose response, cell-based, 5-point CRC, membrane potential dye (AID 504840); assay type: functional
# T2 sequence (Q9GZV3 whole entry): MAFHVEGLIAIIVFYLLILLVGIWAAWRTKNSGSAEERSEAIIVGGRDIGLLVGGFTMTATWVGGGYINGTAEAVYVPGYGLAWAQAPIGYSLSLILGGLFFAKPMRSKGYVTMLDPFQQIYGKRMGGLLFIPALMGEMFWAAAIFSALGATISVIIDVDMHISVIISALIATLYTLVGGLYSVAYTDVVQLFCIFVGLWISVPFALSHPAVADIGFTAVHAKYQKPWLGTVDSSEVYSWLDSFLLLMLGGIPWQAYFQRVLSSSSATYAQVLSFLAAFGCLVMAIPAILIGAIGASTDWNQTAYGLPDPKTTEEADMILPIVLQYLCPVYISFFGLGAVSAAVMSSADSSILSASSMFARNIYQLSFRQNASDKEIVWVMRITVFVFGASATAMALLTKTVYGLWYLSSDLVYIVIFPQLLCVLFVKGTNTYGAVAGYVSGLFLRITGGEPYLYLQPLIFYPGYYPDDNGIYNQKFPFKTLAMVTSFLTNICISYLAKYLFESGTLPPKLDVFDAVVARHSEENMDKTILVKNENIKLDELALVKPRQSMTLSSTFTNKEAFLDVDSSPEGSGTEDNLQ
# [11] = tested on: Streptococcus sp. 'group A'; assay: growth inhibition of control SK(-) GAS strain, dose response, counter-screen for streptokinase expression inhibitor project, luminescence, kanamycin, BacTiterGlo, confirmation (AID 1900); assay type: functional, organism-based
# [12] = inhibitors of intracellular T. cruzi replication, confirmation, NIH3T3 host cells, beta-gal luminescence (AID 2044); assay type: functional, cell-based;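 note: intracellular parasites grown in NIH/3T3 mouse fibroblasts as host cells; luminescent beta-galactosidase reporter signal from transgenic T. cruzi replicating inside host cells; inhibitors lower the luminescence signal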
# [13] = cytotoxicity toward NIH3T3 fibroblasts, dose response, counter-screen, cell-based, ATP luminescence, mouse fibroblasts (AID 2010); assay type: functional;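 note: cells exposed to compound for about 90 hours before reading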
# Streptococcus = assay: Group A Streptococcus viability loss, dose response, counter-screen for streptokinase expression inhibitor project, luminescence, BacTiterGlo (AID 1915); assay type: functional, organism-based;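 note: potency for reduction of bacterial viability or growth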
# Nonstructural protein 1 = Nonstructural protein 1 (Influenza A virus, UniProt Q194T2); assay type: functional, Influenza A virus (A/California/07/2009(H1N1))
# Nonstructural protein 1, sequence (Q194T2 whole entry): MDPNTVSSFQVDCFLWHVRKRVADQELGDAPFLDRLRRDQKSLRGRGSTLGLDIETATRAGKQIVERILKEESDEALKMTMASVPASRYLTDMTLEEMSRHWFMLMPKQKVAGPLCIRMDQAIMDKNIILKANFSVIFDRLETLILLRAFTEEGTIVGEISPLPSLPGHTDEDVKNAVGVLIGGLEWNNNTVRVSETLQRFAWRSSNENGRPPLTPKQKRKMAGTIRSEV
# HEK293 [14] = assay: NOD1 signaling inhibitors, primary screen, cell-based, luminescence, uHTS (AID 1578); assay type: functional; conditions: Homo sapiens
# HEK293 [15] = assay: cells; assay type: functional, cell-based; conditions: Homo sapiens
# HEK293 [16] = assay: cells; assay type: functional, cell-based; conditions: Homo sapiens; remark: listed apart in the source
# HEK293 [17] = assay: NOD2 signaling inhibitors in MDP-stimulated cells, cell-based, uHTS, luminescence (AID 2001); assay type: functional; conditions: Homo sapiens
# [18] = molecular target: Heat shock protein HSP 90-alpha (Homo sapiens, UniProt P07900); assay type: functional, organism-based
# [19] = molecular target: T3, Carboxy-terminal domain RNA polymerase II polypeptide A small phosphatase 1 (Homo sapiens, UniProt Q9GZU7); assay: inhibitors of CTDSP1, concentration-response testing, biochemical assay, absorbance-based, actives from ultra-high-throughput screening (AID 540297); assay type: functional
# T3 sequence (Q9GZU7 whole entry): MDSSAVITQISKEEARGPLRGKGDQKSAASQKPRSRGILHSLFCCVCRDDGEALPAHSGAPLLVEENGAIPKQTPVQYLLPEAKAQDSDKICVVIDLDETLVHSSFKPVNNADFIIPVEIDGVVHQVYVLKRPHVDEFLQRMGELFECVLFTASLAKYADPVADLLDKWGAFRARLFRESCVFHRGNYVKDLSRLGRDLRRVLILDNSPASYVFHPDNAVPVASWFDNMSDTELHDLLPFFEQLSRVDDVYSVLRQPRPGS
# [20] = molecular target: Luciferin 4-monooxygenase (Photinus pyralis, UniProt P08659); assay: firefly luciferase enzyme inhibitors, dose response, biochemical, luminescence (AID 1891)
# Luciferin 4-monooxygenase, sequence (P08659 whole entry): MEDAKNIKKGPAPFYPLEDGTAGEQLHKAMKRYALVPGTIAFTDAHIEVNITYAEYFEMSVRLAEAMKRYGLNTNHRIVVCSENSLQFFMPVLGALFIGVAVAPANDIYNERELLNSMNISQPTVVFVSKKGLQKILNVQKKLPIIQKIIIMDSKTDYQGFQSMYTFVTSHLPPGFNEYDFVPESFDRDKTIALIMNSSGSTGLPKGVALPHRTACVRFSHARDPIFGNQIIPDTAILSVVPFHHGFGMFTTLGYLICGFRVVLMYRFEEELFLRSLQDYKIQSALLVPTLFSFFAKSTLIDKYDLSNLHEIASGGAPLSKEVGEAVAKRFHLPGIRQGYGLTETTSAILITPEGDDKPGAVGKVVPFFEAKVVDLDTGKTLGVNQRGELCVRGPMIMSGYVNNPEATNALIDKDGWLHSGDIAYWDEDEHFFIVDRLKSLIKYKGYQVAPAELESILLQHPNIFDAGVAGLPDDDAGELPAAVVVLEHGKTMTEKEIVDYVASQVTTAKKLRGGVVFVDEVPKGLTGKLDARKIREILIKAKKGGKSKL
# [21] = Luminescence Cell-Based Dose Confirmation HTS to Identify Inhibitors of Platelet Dense Granule Release. [Related pubchem assays: 1663 (Primary HTS), 1678 (Summary of Project)]; assay type: functional
# INS1 = assay: beta cell apoptosis inhibitors, cytokine rescue, dose response, luminescence, retest (AID 449756); assay type: functional, cell-based; conditions: Rattus norvegicus;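 note: cell death triggered by IL-1 beta plus TNF-alpha plus IFN-gamma mixture; protective hits raise ATP signal compared with cytokine alone wells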
# [22] = molecular target: Induced myeloid leukemia cell differentiation protein Mcl-1 (Homo sapiens, UniProt Q07820); assay type: functional
# Induced myeloid leukemia cell differentiation protein Mcl-1, sequence (Q07820 whole entry): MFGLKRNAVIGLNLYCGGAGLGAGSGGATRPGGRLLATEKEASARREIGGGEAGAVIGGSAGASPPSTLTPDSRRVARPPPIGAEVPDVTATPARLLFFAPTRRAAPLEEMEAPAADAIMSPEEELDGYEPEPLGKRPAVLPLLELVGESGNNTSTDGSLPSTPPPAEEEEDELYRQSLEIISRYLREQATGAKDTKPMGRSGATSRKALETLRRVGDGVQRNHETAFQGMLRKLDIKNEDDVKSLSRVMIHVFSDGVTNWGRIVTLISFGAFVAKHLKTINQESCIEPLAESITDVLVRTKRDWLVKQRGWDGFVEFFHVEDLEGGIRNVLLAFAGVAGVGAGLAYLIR
# Cytochrome P450 2C9 = Cytochrome P450 2C9 (Homo sapiens, UniProt P11712)
# Cytochrome P450 2C9, sequence (P11712 whole entry): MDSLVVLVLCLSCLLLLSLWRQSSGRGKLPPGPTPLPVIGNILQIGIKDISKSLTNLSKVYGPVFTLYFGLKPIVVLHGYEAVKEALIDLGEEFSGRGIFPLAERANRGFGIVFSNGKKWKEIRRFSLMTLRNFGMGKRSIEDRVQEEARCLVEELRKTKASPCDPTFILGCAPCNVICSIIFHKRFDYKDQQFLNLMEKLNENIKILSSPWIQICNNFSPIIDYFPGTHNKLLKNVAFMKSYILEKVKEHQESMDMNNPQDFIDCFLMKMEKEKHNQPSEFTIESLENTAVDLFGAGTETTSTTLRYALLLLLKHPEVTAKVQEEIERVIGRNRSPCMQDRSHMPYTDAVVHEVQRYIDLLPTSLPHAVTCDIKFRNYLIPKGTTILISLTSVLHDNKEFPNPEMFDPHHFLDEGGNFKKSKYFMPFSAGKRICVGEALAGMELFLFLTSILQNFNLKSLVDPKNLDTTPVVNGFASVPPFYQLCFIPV
# [23] = Shn3 3'UTR reporter inhibitors, dose response, cell-based, Clone20 osteoblasts, firefly luciferase, cherry-picked (AID 624132); assay type: functional;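 note: firefly luciferase luminescence from reporter carrying the Shn3 3'UTR in osteoblasts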
# [24] = HepG2 cell cytotoxicity, dose response, cytotoxicity control for Shn3 inhibitor project, CellTiter-Glo, cherry-picked (AID 624134); assay type: functional, cell-based
# [25] = microbe, parasite or virus in culture; assay type: functional; conditions: Mycobacterium tuberculosis
smiles,measurement,setting,value
CN1c2ccccc2C(C)(C)C12C=Cc1cc(O)ccc1O2 (stereo not given),EC50,[1],15.2 µM (active)
same,EC50,[2],> 20 µM (not active)
same,EC50,[3],36.4 µM (active)
same,EC50,[4],18.4 µM (active)
CCC(=O)N1CCc2cc(Br)cc(S(=O)(=O)NCCCN(CC)Cc3ccccc3)c21,EC50,[5],0.0133 µM (active)
O=C(c1ccc2c3c(cccc13)CC2)C1CCCN(CC2CC2)C1 (stereo not given),EC50,[5],0.841 µM (active)
O=C1NC(=O)C(=Cc2ccccc2[N+](=O)[O-])C(=O)N1,IC50,Genome polyprotein,27.3 µM (active)
CN(C)c1ccc(NC(=S)N2CCN(c3ncc(C(F)(F)F)cc3Cl)CC2)cc1,EC50,[5],2.66 µM (active)
O=C(O)CN1C(=O)/C(=C\c2cccc(OCc3ccc(F)cc3)c2)SC1=S,IC50,Genome polyprotein,42.6 µM (active)
O=C(CNc1ccc2c(c1)OCO2)N/N=C\c1cn(Cc2ccccc2)c2ccccc12,EC50,[6],9.09 µM (active)
same,EC50,[7],10.5 µM (active)
same,EC50,[8],6.5 µM (active)
same,IC50,[9],> 80 µM (inactive)
Cc1ccc(C(=O)NC2CCCCC2)cc1S(=O)(=O)N1CCCC1,IC50,[10],1.26 µM (active)
Oc1ccc(CN2CCN(c3ccccc3)CC2)c2cccnc12,EC50,[6],11.9 µM (active)
same,EC50,[11],5.48 µM (active)
same,EC50,[7],9.95 µM (active)
same,EC50,[8],9.72 µM (active)
same,EC50,[12],1.86 µM (active)
same,EC50,[13],> 60 µM (not active)
same,EC50,Streptococcus,7.49 µM (active)
same,IC50,Nonstructural protein 1,59.1 µM (active)
COc1ccccc1/C=C1\SC(=S)N(NS(=O)(=O)c2ccc(C)cc2)C1=O,IC50,Genome polyprotein,34.7 µM (active)
COc1ccc(NS(=O)(=O)c2ccc(N/N=C(\C)c3ccncc3)c([N+](=O)[O-])c2)cc1,EC50,HEK293 [14],4.33 µM (active)
same,IC50,HEK293 [15],3.9 µM (active)
same,IC50,HEK293 [16],17.8 µM (active)
same,IC50,HEK293 [17],2.11 µM (active)
Cc1ccc2c(c1)c(CC(=O)Nc1ccc(C)c(F)c1)c(C(=O)O)n2C,IC50,[10],12.6 µM (active)
Cc1cc(C)c(S(=O)(=O)NCC23C=CC(O2)C2C(=O)N(c4ccccc4)C(=O)C23)c(C)c1 (stereo not given),AC50,[18],10.1 µM (active)
C=CCc1c(C)nc(S)c(C#N)c1C,IC50,[9],> 80 µM (inactive)
O=C1CC2CCCN2C=C1I (stereo not given),IC50,Genome polyprotein,62.7 µM (active)
same,IC50,[19],5.48 µM (active)
O=[N+]([O-])c1ccc(N2CCNCC2)c(Cl)c1,EC50,[5],0.596 µM (active)
Oc1nccc(N/N=C/c2ccccc2O)n1,EC50,[20],36.3 µM (active)
same,EC50,[21],4.11 µM (active)
same,IC50,Nonstructural protein 1,10.3 µM (active)
same,AC50,INS1,0.625 µM (active)
Cc1cc(NC(=O)CSc2nnc(-c3ccco3)o2)no1,IC50,Nonstructural protein 1,32.4 µM (active)
COc1cccc(C2(c3cccc(OC)c3)CC2C(=O)Nc2ccc(F)cc2)c1 (stereo not given),IC50,[9],> 80 µM (inactive)
O=C(COC(=O)c1cc(-c2ccco2)nc2ccccc12)NCc1ccc2c(c1)OCO2,IC50,[22],< 0.4 µM (active)
Cc1ccc(C(=O)N/C(=C/C=C/c2ccccc2)C(=O)NCc2ccco2)cc1,IC50,[10],17.4 µM (active)
same,AC50,Cytochrome P450 2C9,10 µM (inconclusive)
COC(=O)c1ccc(N2C(=O)CC(N(C)Cc3ccccc3)C2=O)cc1 (stereo not given),AC50,[18],7.7 µM (active)
O=C(Cn1nc(C(=O)O)c2ccccc2c1=O)Nc1ccc2c(c1)C(=O)c1ccccc1C2=O,IC50,[22],4.02 µM (active)
Cc1nc(C)c(-c2ccc(SCC(=O)Nc3cccc(Cl)c3)nn2)s1,EC50,HEK293 [14],> 20 µM (inactive)
same,IC50,HEK293 [15],4.18 µM (active)
same,IC50,HEK293 [16],> 20 µM (inactive)
same,IC50,HEK293 [17],4.58 µM (active)
CSc1cccc(NS(=O)(=O)c2ccc3c(c2)CCN3C(C)=O)c1,EC50,HEK293 [14],2.42 µM (active)
same,IC50,HEK293 [15],10.8 µM (active)
same,IC50,HEK293 [16],> 20 µM (inactive)
same,IC50,HEK293 [17],7.07 µM (active)
same,AC50,[23],1.49 µM (active)
same,AC50,[24],2.79 µM (active)
Cc1ccc2c(c1)c1ncnc(N3CCc4ccccc4C3)c1n2C,EC50,[1],11.4 µM (active)
same,CC50,[25],> 40 µM (active)
same,EC50,[2],11.7 µM (active)
CCn1c(N2CCN(Cc3ccc([N+](=O)[O-])cc3)CC2)nc2ccccc21,EC50,[5],0.133 µM (active)
CC(C)(C)OC(=O)N[C@@H](Cc1ccccc1)c1nnc(S(=O)(=O)Cc2ccccc2)o1,EC50,[1],16.9 µM (active)
same,EC50,[2],> 20 µM (not active)
